According to the NIST ThermoML archive (doi:10.1021/je7002447):

Experiments:
[1] = excess molar enthalpy (molar enthalpy of mixing); xn = mol fraction of the nth substance listed; conditions: 298.15 K, 101.3 kPa, Liquid, Flow calorimetry
[2] = 298.15 K; 101.33 kPa; Liquid

ClCc1ccccc1 [(chloromethyl)benzene] + Cc1ccccc1
[1]
Conditions | excess molar enthalpy [kcal/mol]
x1 = 0.1036 | 0.00576
x1 = 0.1877 | 0.00925
x1 = 0.2574 | 0.0113
x1 = 0.3161 | 0.0128
x1 = 0.3813 | 0.014
x1 = 0.4803 | 0.0143
x1 = 0.581 | 0.0133
x1 = 0.649 | 0.0124
x1 = 0.735 | 0.0109
x1 = 0.7871 | 0.00944
x1 = 0.8809 | 0.00571
x1 = 0.9024 | 0.00511

ClCc1ccccc1 [(chloromethyl)benzene] + CCc1ccccc1
[1]
Conditions | excess molar enthalpy [kcal/mol]
x1 = 0.0962 | 0.0125
x1 = 0.1664 | 0.0181
x1 = 0.2102 | 0.0209
x1 = 0.2853 | 0.0242
x1 = 0.4151 | 0.0281
x1 = 0.5156 | 0.0284
x1 = 0.5866 | 0.0278
x1 = 0.6804 | 0.025
x1 = 0.7395 | 0.022
x1 = 0.8098 | 0.018
x1 = 0.8646 | 0.0136
x1 = 0.8949 | 0.00999

CCCCc1ccccc1 [butylbenzene]
Conditions | mass density [kg/m3]
[2] | 856.29

CCCc1ccccc1 [propylbenzene] + Clc1ccccc1
[1]
Conditions | excess molar enthalpy [kcal/mol]
x2 = 0.1205 | -0.0121
x2 = 0.1859 | -0.0162
x2 = 0.2551 | -0.0211
x2 = 0.3394 | -0.0244
x2 = 0.4066 | -0.0261
x2 = 0.4774 | -0.0277
x2 = 0.5781 | -0.0261
x2 = 0.6727 | -0.0241
x2 = 0.7851 | -0.0189
x2 = 0.8796 | -0.0118
x2 = 0.9164 | -0.00782

Cc1ccccc1 [toluene]
Conditions | mass density [kg/m3]
[2] | 862.19

CCc1ccccc1 [ethylbenzene]
Conditions | mass density [kg/m3]
[2] | 862.55

Clc1ccccc1 [chlorobenzene]
Conditions | mass density [kg/m3]
[2] | 1101.17

c1ccccc1 [benzene]
Conditions | mass density [kg/m3]
[2] | 873.58

ClCCc1ccccc1 [(2-chloroethyl)benzene] + Cc1ccccc1
[1]
Conditions | excess molar enthalpy [kcal/mol]
x1 = 0.075 | -7.17e-05
x1 = 0.092 | 0
x1 = 0.1686 | 0.000191
x1 = 0.2332 | 0.000502
x1 = 0.2885 | 0.000645
x1 = 0.3782 | 0.0011
x1 = 0.4478 | 0.00131
x1 = 0.5195 | 0.00167
x1 = 0.5488 | 0.00177
x1 = 0.6186 | 0.00189
x1 = 0.6838 | 0.00184
x1 = 0.7643 | 0.00174
x1 = 0.8122 | 0.00163
x1 = 0.8439 | 0.00146
x1 = 0.8902 | 0.00115
x1 = 0.9068 | 0.00098

ClCCc1ccccc1 [(2-chloroethyl)benzene] + c1ccccc1
[1]
Conditions | excess molar enthalpy [kcal/mol]
x1 = 0.1016 | 0.00739
x1 = 0.145 | 0.00896
x1 = 0.2028 | 0.0105
x1 = 0.3115 | 0.0114
x1 = 0.4042 | 0.0112
x1 = 0.5044 | 0.00999
x1 = 0.5757 | 0.00856
x1 = 0.6706 | 0.00686
x1 = 0.7308 | 0.00581
x1 = 0.8028 | 0.00471
x1 = 0.8444 | 0.00354

ClCCCc1ccccc1 [(3-chloropropyl)benzene] + CCCc1ccccc1
[1]
Conditions | excess molar enthalpy [kcal/mol]
x1 = 0.0863 | 0.000884
x1 = 0.136 | 0.00158
x1 = 0.191 | 0.0022
x1 = 0.2394 | 0.00277
x1 = 0.3207 | 0.00327
x1 = 0.3863 | 0.00392
x1 = 0.4145 | 0.00411
x1 = 0.4856 | 0.00445
x1 = 0.5573 | 0.00466
x1 = 0.5861 | 0.00464
x1 = 0.6538 | 0.00464
x1 = 0.7157 | 0.00423
x1 = 0.7391 | 0.00428
x1 = 0.7906 | 0.00378
x1 = 0.8343 | 0.00311
x1 = 0.9042 | 0.00215
x1 = 0.9189 | 0.00191

CCCCc1ccccc1 [butylbenzene] + Clc1ccccc1
[1]
Conditions | excess molar enthalpy [kcal/mol]
x2 = 0.133 | -0.00973
x2 = 0.1609 | -0.0115
x2 = 0.2036 | -0.0139
x2 = 0.2772 | -0.0177
x2 = 0.3383 | -0.0199
x2 = 0.4341 | -0.0219
x2 = 0.535 | -0.0209
x2 = 0.6054 | -0.0194
x2 = 0.6971 | -0.0164
x2 = 0.8036 | -0.0133
x2 = 0.902 | -0.00822

ClCc1ccccc1 [(chloromethyl)benzene] + CCCCc1ccccc1
[1]
Conditions | excess molar enthalpy [kcal/mol]
x1 = 0.1194 | 0.033
x1 = 0.145 | 0.0402
x1 = 0.2028 | 0.0481
x1 = 0.2532 | 0.0596
x1 = 0.3114 | 0.0663
x1 = 0.4041 | 0.073
x1 = 0.5043 | 0.0762
x1 = 0.5756 | 0.0752
x1 = 0.6439 | 0.0712
x1 = 0.7307 | 0.0619
x1 = 0.7834 | 0.0522
x1 = 0.8444 | 0.0413
x1 = 0.8906 | 0.0294
x1 = 0.9313 | 0.0204

ClCc1ccccc1 [(chloromethyl)benzene] + CCCc1ccccc1
[1]
Conditions | excess molar enthalpy [kcal/mol]
x1 = 0.1315 | 0.0266
x1 = 0.2325 | 0.038
x1 = 0.3124 | 0.0468
x1 = 0.3772 | 0.0499
x1 = 0.4468 | 0.0527
x1 = 0.5478 | 0.0541
x1 = 0.645 | 0.0484
x1 = 0.7079 | 0.0443
x1 = 0.7842 | 0.0344
x1 = 0.8289 | 0.0245
x1 = 0.8791 | 0.0204
x1 = 0.9065 | 0.0154

ClCCCc1ccccc1 [(3-chloropropyl)benzene] + c1ccccc1
[1]
Conditions | excess molar enthalpy [kcal/mol]
x1 = 0.0913 | -0.00229
x1 = 0.1843 | -0.00478
x1 = 0.2316 | -0.00547
x1 = 0.3113 | -0.00717
x1 = 0.376 | -0.00822
x1 = 0.4455 | -0.00868
x1 = 0.5466 | -0.00868
x1 = 0.6164 | -0.0082
x1 = 0.7068 | -0.00705
x1 = 0.7834 | -0.00569
x1 = 0.8282 | -0.00476
x1 = 0.8577 | -0.00416

ClCCc1ccccc1 [(2-chloroethyl)benzene] + CCc1ccccc1
[1]
Conditions | excess molar enthalpy [kcal/mol]
x1 = 0.105 | 0.00798
x1 = 0.19 | 0.012
x1 = 0.2603 | 0.0148
x1 = 0.3194 | 0.0181
x1 = 0.3849 | 0.0191
x1 = 0.4841 | 0.0202
x1 = 0.5847 | 0.0193
x1 = 0.6524 | 0.0184
x1 = 0.7379 | 0.0159
x1 = 0.7897 | 0.0144
x1 = 0.8825 | 0.00832
x1 = 0.9037 | 0.00641

Clc1ccccc1 [chlorobenzene] + CCc1ccccc1
[1]
Conditions | excess molar enthalpy [kcal/mol]
x1 = 0.1075 | -0.0131
x1 = 0.1308 | -0.0157
x1 = 0.1671 | -0.0186
x1 = 0.2864 | -0.0276
x1 = 0.3111 | -0.029
x1 = 0.4453 | -0.0335
x1 = 0.4745 | -0.0346
x1 = 0.5463 | -0.0341
x1 = 0.6436 | -0.0301
x1 = 0.7625 | -0.0261
x1 = 0.8784 | -0.015
x1 = 0.9233 | -0.00956

ClCCCc1ccccc1 [(3-chloropropyl)benzene] + Cc1ccccc1
[1]
Conditions | excess molar enthalpy [kcal/mol]
x1 = 0.1072 | -0.0125
x1 = 0.1526 | -0.0165
x1 = 0.1936 | -0.0195
x1 = 0.2648 | -0.0232
x1 = 0.3244 | -0.0253
x1 = 0.3507 | -0.0253
x1 = 0.4187 | -0.0272
x1 = 0.4899 | -0.0259
x1 = 0.5193 | -0.0255
x1 = 0.5903 | -0.0243
x1 = 0.6576 | -0.0218
x1 = 0.6836 | -0.0205
x1 = 0.7423 | -0.018
x1 = 0.8121 | -0.0136
x1 = 0.8781 | -0.00882

ClCCCc1ccccc1 [(3-chloropropyl)benzene]
Conditions | mass density [kg/m3]
[2] | 1041.84

ClCCCc1ccccc1 [(3-chloropropyl)benzene] + CCc1ccccc1
[1]
Conditions | excess molar enthalpy [kcal/mol]
x1 = 0.0766 | -0.00471
x1 = 0.1214 | -0.00691
x1 = 0.1717 | -0.00891
x1 = 0.2372 | -0.0103
x1 = 0.2931 | -0.0111
x1 = 0.3835 | -0.012
x1 = 0.4534 | -0.012
x1 = 0.5251 | -0.0117
x1 = 0.5544 | -0.0114
x1 = 0.6239 | -0.0103
x1 = 0.7133 | -0.00832
x1 = 0.7684 | -0.00719
x1 = 0.8327 | -0.00519
x1 = 0.8924 | -0.00335

ClCCCc1ccccc1 [(3-chloropropyl)benzene] + CCCCc1ccccc1
[1]
Conditions | excess molar enthalpy [kcal/mol]
x1 = 0.1167 | 0.00734
x1 = 0.209 | 0.0142
x1 = 0.2605 | 0.0167
x1 = 0.3458 | 0.0197
x1 = 0.4134 | 0.0216
x1 = 0.5138 | 0.0227
x1 = 0.5849 | 0.0223
x1 = 0.6132 | 0.0214
x1 = 0.6789 | 0.0193
x1 = 0.7381 | 0.0172
x1 = 0.8087 | 0.0137
x1 = 0.9136 | 0.0075

ClCCc1ccccc1 [(2-chloroethyl)benzene] + CCCc1ccccc1
[1]
Conditions | excess molar enthalpy [kcal/mol]
x1 = 0.1173 | 0.0173
x1 = 0.1375 | 0.0187
x1 = 0.1662 | 0.0221
x1 = 0.2099 | 0.0266
x1 = 0.285 | 0.033
x1 = 0.347 | 0.0364
x1 = 0.4147 | 0.0393
x1 = 0.4436 | 0.0405
x1 = 0.5152 | 0.0411
x1 = 0.5863 | 0.0404
x1 = 0.6145 | 0.0388
x1 = 0.6801 | 0.0369
x1 = 0.7392 | 0.0319
x1 = 0.8096 | 0.0264
x1 = 0.85 | 0.0222
x1 = 0.914 | 0.0138

Clc1ccccc1 [chlorobenzene] + Cc1ccccc1
[1]
Conditions | excess molar enthalpy [kcal/mol]
x1 = 0.1156 | -0.0126
x1 = 0.2072 | -0.0198
x1 = 0.2584 | -0.0226
x1 = 0.3433 | -0.0261
x1 = 0.4107 | -0.0272
x1 = 0.5111 | -0.0274
x1 = 0.6106 | -0.0256
x1 = 0.6765 | -0.023
x1 = 0.807 | -0.0161
x1 = 0.9127 | -0.00798

ClCCc1ccccc1 [(2-chloroethyl)benzene]
Conditions | mass density [kg/m3]
[2] | 1066.91

ClCCc1ccccc1 [(2-chloroethyl)benzene] + CCCCc1ccccc1
[1]
Conditions | excess molar enthalpy [kcal/mol]
x1 = 0.1063 | 0.0238
x1 = 0.1295 | 0.028
x1 = 0.1655 | 0.0343
x1 = 0.2293 | 0.0443
x1 = 0.3085 | 0.052
x1 = 0.373 | 0.0564
x1 = 0.4424 | 0.0604
x1 = 0.4716 | 0.0607
x1 = 0.5434 | 0.061
x1 = 0.6134 | 0.0592
x1 = 0.7041 | 0.054
x1 = 0.7604 | 0.0477
x1 = 0.8264 | 0.0382
x1 = 0.8639 | 0.0315
x1 = 0.9225 | 0.0195

ClCc1ccccc1 [(chloromethyl)benzene]
Conditions | mass density [kg/m3]
[2] | 1094.82

CCCc1ccccc1 [propylbenzene]
Conditions | mass density [kg/m3]
[2] | 857.62

Clc1ccccc1 [chlorobenzene] + c1ccccc1
[1]
Conditions | excess molar enthalpy [kcal/mol]
x1 = 0.0804 | -0.000502
x1 = 0.1272 | -0.000669
x1 = 0.1794 | -0.000932
x1 = 0.2258 | -0.0011
x1 = 0.3043 | -0.00122
x1 = 0.3684 | -0.00131
x1 = 0.3962 | -0.00139
x1 = 0.4666 | -0.00136
x1 = 0.5384 | -0.00129
x1 = 0.5675 | -0.00131
x1 = 0.6363 | -0.00117
x1 = 0.6999 | -0.001
x1 = 0.7777 | -0.00086
x1 = 0.8235 | -0.000741
x1 = 0.8974 | -0.000406

ClCc1ccccc1 [(chloromethyl)benzene] + Clc1ccccc1
[1]
Conditions | excess molar enthalpy [kcal/mol]
x2 = 0.1118 | 0.0144
x2 = 0.2012 | 0.0215
x2 = 0.2742 | 0.0245
x2 = 0.335 | 0.0271
x2 = 0.4304 | 0.0287
x2 = 0.5312 | 0.0272
x2 = 0.6018 | 0.0253
x2 = 0.6939 | 0.022
x2 = 0.7514 | 0.0187
x2 = 0.8193 | 0.015
x2 = 0.858 | 0.0123
